We go through 1 compound from PMC11325214 (2024).

This assay concerns L-Procaine aptamer (DNA, aptamer) GGCGACAAGGAAAATCCTTCAACGAAGGTGGGTGGCC
In words: E-AB square wave voltammetry, 3D-printed gold electrode cell. Conditions: undiluted human serum; in serum; immobilised aptamer; apparent; Hill fit.

For orientation: EC50 means the concentration that produces a half-maximal response. Take `CCN(CC)CCOC(=O)c1ccc(N)cc1`: the EC50 is given as 59.2 mM.
